Experimental data: PMC6856721, “Discovery of a Novel DNA Gyrase-Targeting Antibiotic through the Chemical Perturbation of Streptomyces venezuelae Sporulation” (Cell Chemical Biology, 2019)
≈ marks a conversion by molar mass, not a printed value. Where “and” joins values, the source holds several entries; their conditions need not be identical. Identical values can stand only once. Like-named read-outs stand apart in the source and are kept apart here.

Assays:
S. venezuelae = S. venezuelae sporulation inhibition disk diffusion assay (whi phenotype, SEM); format: cell-based, Streptomyces venezuelae; conditions: for Sporulation inhibition: disk with 10 μL antibiotic, 48 h, white halo in sub-MIC region; for Aerial hyphae septation by SEM: lawn immediately adjacent to the zone of inhibition
Protocol: A lawn of S. venezuelae spores was plated on MYM agar plates and allowed to dry. For the initial screen, 2 μL of each molecule at 2.5 mM was spotted directly to the agar plate. For known antibiotics or follow-up screening, 10 μL of molecule was added to a drug disk, allowed to dry, and placed on the agar plate. The S. venezuelae plate was incubated at 30°C for 48 hours and photographed. The whi phenotype was identified by eye. Hits were selected based on their ability to induce a whi phenotype at sub-inhibitory concentrations and scored by eye on the size of the induced whi region and the zone of inhibition.
To prepare samples for SEM, the agar plate containing a lawn of S. venezuelae was cut at the edge of the zone of inhibition and fixed with 2% glutaraldehyde in 0.1% sodium cacodylate buffer followed by sputter coating with gold. Images were obtained and processed using a FEI XL30 ESEM. The contrast of the resulting images was adjusted to highlight the appearance or lack of spore formation.

S. aureus = assay: Minimum inhibitory concentration, broth dilution, S. aureus strains; format: cell-based, Staphylococcus aureus
Protocol: (§1) The minimum inhibitory concentration (MIC) defines the lowest concentration of a compound required to inhibit the growth. A single colony of the bacteria being tested was grown in 5 mL of liquid growth media. Following overnight growth, the culture was diluted 100-fold into fresh media and incubated at 37°C until the cells reached mid-log phase (OD600 of 0.3 to 0.5). The cells were diluted 10,000-fold into fresh media and the MIC determined for each of the strains by adding 2 μL of the diluted compound to 198 μL of the diluted cells in a clear 96-well plate. The plates were incubated at 37°C overnight and the optical density at 600 nm was measured for each well. All MIC assays were performed in triplicate.

E. coli = assay: Minimum inhibitory concentration, broth dilution, E. coli strains; format: cell-based, Escherichia coli
Protocol: as §1

S. aureus gyrase [1] = target: T1, S. aureus gyrase (Staphylococcus aureus, UniProt P0A0K8+P20831); assay: S. aureus gyrase supercoiling; format: biochemical; conditions: purified S. aureus gyrase, wild-type
T1 construct: purchased Inspiralis Inc. SAS4001 (supercoiling kit); SAGC001 (cleavage assay kit)
Protocol: (§2) 1 U of DNA gyrase was incubated with 0.5 μg of relaxed pBR322 DNA in a 30 μl reaction at 37°C for 30 minutes under the following conditions: 35 mM Tris.HCl (pH 7.5), 24 mM KCl, 4 mM MgCl2, 2 mM DTT, 1.8 mM Spermidine, 1 mM ATP, 6.5% (w/v) glycerol and 0.1 mg/mL BSA. Each reaction was stopped by the addition of 30 μl chloroform/iso-amyl alcohol (24:1) and 20 μl Stop Dye (40% sucrose, 100 mM Tris.HCl (pH 7.5), 10 mM EDTA, 0.5 μg/mL bromophenol blue), before being loaded on a 1.0% TAE (Tris.acetate […], EDTA […]) agarose gel. Gels run at 90 V for 2 hours. Bands were visualized by ethidium staining for 20 minutes and destaining in water for 20 minutes. Gels were scanned using a gel documentation system (GeneGenius, Syngene, Cambridge, UK) and percent inhibition levels obtained with gel scanning software (GeneTools, Syngene, Cambridge,UK).
(§3) As for E. coli gyrase except assay conditions were: 40 mM HEPES. KOH (pH 7.6), 10 mM magnesium acetate, 10 mM DTT, 2 mM ATP, 500 mM potassium glutamate, and 0.05 mg/mL BSA. Gels run at 80 V for 3 hours.

E. coli gyrase = target: T2, E. coli gyrase (Escherichia coli, UniProt P0AES4+P0AES6); assay: E. coli gyrase supercoiling; format: biochemical; conditions: purified E. coli gyrase
T2 construct: purchased Inspiralis Inc. K0001
Protocol: as §2

[2] = target: T3, S. aureus topoisomerase IV (Staphylococcus aureus, UniProt P0C1S7+P0C1U9); assay: S. aureus topoisomerase IV decatenation; format: biochemical; conditions: purified S. aureus topoisomerase IV; no activity up to; read-out: IC50, topoisomerase IV-catalyzed decatenation
T3 construct: purchased Inspiralis Inc. SAD4001
Protocol: 1 U of topoisomerase IV was incubated with 200 ng kDNA DNA in a 30 μl reaction at 37 C for 30 minutes under the following conditions: 50 mM HEPES-KOH (pH 7.6), 100 mM potassium glutamate, 10 mM magnesium acetate, 10 mM dithiothreitol, 1 mM ATP and 50 μg/mL BSA. Each reaction was stopped by the addition of 30 μl chloroform/iso-amyl alcohol (24:1) and 20 μl Stop Dye, before being loaded on a 1.0% TAE agarose gel. Gels run at 90 V for 2 hours.
As for E coli topoisomerase IV except assay conditions were: 50 mM Tris-HCl (7.5), 5 mM MgCl2, 5 mM DTT, 1.5 mM ATP, 350 mM potassium glutamate and 0.05 mg/mL BSA. Gels run at 80 V for 2 hours.

S. aureus gyrase [3] = target: T1, S. aureus gyrase; assay: S. aureus gyrase cleavage; format: biochemical
Protocol: 1 U of gyrase was incubated with 0.5 μg of supercoiled pBR322 DNA in a 30 μL reaction at 37 C for 30 minutes under the following conditions: 40 mM HEPES. KOH (pH 7.6), 10 mM magnesium acetate, 10 mM DTT, 100 mM potassium glutamate and 0.05 mg/mL albumin. 0.2 % SDS and 0.1 mg/mL Proteinase K were added before a further incubation at 37°C for 30 minutes. Each reaction was stopped by the addition of 30 μL chloroform/iso-amyl alcohol (24:1) and 20 μL Stop Dye, before being loaded on a 1.0% TAE agarose gel. Gels run at 80 V for 2 hours.

S. aureus gyrase [4] = target: T1, S. aureus gyrase; assay: S. aureus gyrase relaxation; format: biochemical; conditions: ATP-independent
Protocol: 1 U of gyrase was incubated with 0.5 μg of supercoiled pBR322 DNA in a 30 μL reaction at 37°C for 60 minutes under the following conditions: 50 mM Tris.HCl (pH 7.5), 5 mM MgCl2,5 mM DTT, 350 mM potassium glutamate, and 0.05 mg/mL albumin. Each reaction was stopped by the addition of 30 μL chloroform/iso-amyl alcohol (24:1) and 20 μl Stop Dye, before being loaded on a 1.0% TAE agarose gel. Gels run at 80 V for 2 hours.

[5] = target: T4, S. aureus gyrase GyrA S84L (Staphylococcus aureus, UniProt P0A0K8+P20831, S84L); assay: Supercoiling inhibition of S. aureus gyrase mutant GyrA S84L; format: biochemical; conditions: for Susceptibility of gyrase mutant GyrA S84L: S. aureus gyrase
T4 construct: purchased Inspiralis Inc. SAAS84L01
Protocol: as §2, §3

HEK293 cells = assay: Toxicity against human HEK293 cells; format: cell-based
Excerpt: The experimental model that we have employed is Staphyloccocus aureus strain ATCC 29213. We have used the cell line HEK293, as a control for EN-7 toxicity against human cells.

[6] = Staphylococcus aureus, ATCC29213, S. aureus ATCC 29213 (wild-type, parent strain), read-out: MIC
[7] = Staphylococcus aureus, ATCC29213, S. aureus parent strain (ATCC 29213), read-out: MIC
[8] = Staphylococcus aureus, EN-7-resistant S. aureus mutants

N#CC(C#N)=NNc1cccc(Cl)c1 [CCCP, carbonyl cyanide m-chlorophenyl hydrazone]
Sporulation inhibition (S. venezuelae): −

O=C(/C=C/c1cccc2cccnc12)NNC(=O)c1cc(-c2ccccc2)on1 [EN-7]
Growth inhibition (zone of inhibition) (S. venezuelae; filter disk, 10 μL of 2.5 mM): significant zone of inhibition
Sporulation inhibition below the MIC for growth (S. venezuelae; filter disk, 10 μL of 2.5 mM): striking band of inhibited sporulation
MIC (S. aureus; S. aureus clinical strain C0018, read-out: MIC): >128 µM
MIC (S. aureus; S. aureus clinical strain C0032, read-out: MIC): >128 µM
MIC (S. aureus; S. aureus clinical strain C0117, read-out: MIC): >128 µM
MIC (S. aureus; [6]): 1 µM
MIC (S. aureus; Staphylococcus aureus, ATCC29213, nine EN-7-resistant S. aureus ATCC 29213 mutants (mut-1 to mut-9), 16 μM highest concentration tested): > 16 µM
MIC (S. aureus; Staphylococcus aureus, ATCC29213, three S. aureus ATCC 29213 GyrB K417E allelic exchange strains): > 128 µM
MIC (S. aureus; Staphylococcus aureus, ATCC 29213 / ATCC 33591, S. aureus three laboratory strains (ATCC 29213, TCH1516, ATCC 33591) and four clinical strains (C0017, C0024, C0023, C0019), read-out: MIC): 0.4 mg/L
MIC (S. aureus; Staphylococcus aureus, ATCC33519, S. aureus ATCC 33519, read-out: MIC): 1 µM
MIC (S. aureus; Staphylococcus aureus, S. aureus TCH 1516, read-out: MIC): 1 µM
MIC (S. aureus; Staphylococcus aureus, S. aureus clinical strain C0017, read-out: MIC): 1 µM
MIC (S. aureus; Staphylococcus aureus, S. aureus clinical strain C0018, read-out: MIC): > 128 µM
MIC (S. aureus; Staphylococcus aureus, S. aureus clinical strain C0019, read-out: MIC): 1 µM
MIC (S. aureus; Staphylococcus aureus, S. aureus clinical strain C0023, read-out: MIC): 1 µM
MIC (S. aureus; Staphylococcus aureus, S. aureus clinical strain C0024, read-out: MIC): 1 µM
MIC (S. aureus; Staphylococcus aureus, S. aureus clinical strain C0032, read-out: MIC): > 128 µM
MIC (S. aureus; Staphylococcus aureus, S. aureus clinical strain C0112, read-out: MIC): 4 µM
MIC (S. aureus; Staphylococcus aureus, S. aureus clinical strain C0117, read-out: MIC): > 128 µM
MIC (E. coli; E. coli BW25113, read-out: MIC): >64 µM
MIC (E. coli; E. coli MC1061, read-out: MIC): >64 µM
MIC (E. coli; Escherichia coli, BW25113, E. coli BW25113, read-out: MIC): > 64 µM
MIC (E. coli; Escherichia coli, BW25113, E. coli BW25113 ΔtolC ΔbamB, outer-membrane and efflux-deficient): 1 µM (≈ 0.384 µg/mL)
MIC (E. coli; Escherichia coli, E. coli MC1061, read-out: MIC): > 64 µM
IC50 (S. aureus gyrase [1]): 0.085 µM
IC50 (E. coli gyrase): 1.75 µM
IC50 [2]: > 100 µM
Occurrence of DNA nicking (S. aureus gyrase [3]; S. aureus gyrase, pBR322): does increase the occurrence of DNA nicking
Stabilization of gyrase-DNA double-stranded cleavage complex (S. aureus gyrase [3]; S. aureus gyrase, pBR322): does not stabilize
Effect on ciprofloxacin-induced formation of the double-stranded cleavage complex (S. aureus gyrase [3]; co-treatment with ciprofloxacin): does not prevent
Inhibition of gyrase-induced DNA relaxation (S. aureus gyrase [4]): inhibit
IC50 (S. aureus gyrase [4]; read-out: IC50, gyrase-induced relaxation): 0.1 to 0.5 µM
IC50 [5]: 9.96 µM
Increase of IC50 relative to the wild-type enzyme ([5]; GyrA S84L vs wild-type S. aureus gyrase, supercoiling inhibition): > 100 fold and ~100 fold
Susceptibility of gyrase mutant GyrA S84L [5]: less susceptible
Toxicity to human HEK293 cells (HEK293 cells): no toxicity

NC[C@H]1O[C@H](O[C@H]2[C@H](O)[C@@H](O[C@H]3O[C@H](CO)[C@@H](O)[C@H](N)[C@H]3O)[C@H](N)C[C@@H]2N)[C@H](O)[C@@H](O)[C@@H]1O [Kanamycin, kanamycin]
Sporulation inhibition (S. venezuelae): −
Aerial hyphae septation by SEM (S. venezuelae): septated aerial hyphae

CO[C@@]12[C@H](COC(N)=O)C3=C(C(=O)C(C)=C(N)C3=O)N1C[C@@H]1N[C@@H]12 [Mitomycin C, mitomycin C]
Sporulation inhibition (S. venezuelae): +
Aerial hyphae septation by SEM (S. venezuelae): do not show any aerial hyphae septation

CO[C@H]1/C=C/O[C@@]2(C)Oc3c(C)c(O)c4c(O)c(c(/C=N/N5CCN(C)CC5)c(O)c4c3C2=O)NC(=O)/C(C)=C\C=C\[C@H](C)[C@H](O)[C@@H](C)[C@@H](O)[C@@H](C)[C@H](OC(C)=O)[C@@H]1C [Rifampicin, rifampicin]
Sporulation inhibition (S. venezuelae): −
Aerial hyphae septation by SEM (S. venezuelae): septated aerial hyphae

Oc1cc(Cl)ccc1Oc1ccc(Cl)cc1Cl [Triclosan, triclosan]
Sporulation inhibition (S. venezuelae): −

CN[C@H](CC(C)C)C(=O)N[C@H]1C(=O)N[C@@H](CC(N)=O)C(=O)N[C@H]2C(=O)N[C@H]3C(=O)N[C@H](C(=O)N[C@H](C(=O)O)c4cc(O)cc(O)c4-c4cc3ccc4O)[C@H](O)c3ccc(c(Cl)c3)Oc3cc2cc(c3O[C@@H]2O[C@H](CO)[C@@H](O)[C@H](O)[C@H]2O[C@H]2C[C@](C)(N)[C@H](O)[C@H](C)O2)Oc2ccc(cc2Cl)[C@H]1O [Vancomycin, vancomycin]
Sporulation inhibition (S. venezuelae): −

O=C(O)c1cn(C2CC2)c2cc(N3CCNCC3)c(F)cc2c1=O [ciprofloxacin, reference compound]
Sporulation inhibition (S. venezuelae): +
Aerial hyphae septation by SEM (S. venezuelae): do not show any aerial hyphae septation
MIC (S. aureus; [7]): 0.2 mg/L
MIC (S. aureus; [8]): 0.2 mg/L

O=c1ccc2ncc(=O)n3c2n1C[C@H]3CN1CCC(NCc2cc3c(cn2)OCCC3)CC1 [gepotidacin, reference compound]
MIC (S. aureus; [6]): 0.5 µM
MIC (S. aureus; Staphylococcus aureus, EN-7-resistant S. aureus strains with GyrB D437N (mut-7, mut-8)): 32 µM

COc1c(N2C[C@@H]3CCCN[C@@H]3C2)c(F)cc2c(=O)c(C(=O)O)cn(C3CC3)c12 [moxifloxacin, reference compound]
Inhibition of gyrase-induced DNA relaxation (S. aureus gyrase [4]): inhibit
Susceptibility of gyrase mutant GyrA S84L [5]: less susceptible

CO[C@@H]1[C@@H](OC(N)=O)[C@@H](O)[C@H](Oc2ccc3c(O)c(NC(=O)c4ccc(O)c(CC=C(C)C)c4)c(=O)oc3c2C)OC1(C)C [novobiocin, reference compound]
Sporulation inhibition (S. venezuelae): +
MIC (S. aureus; [7]): 0.06 mg/L
MIC (S. aureus; [8]): 0.06 mg/L

bleomycin
Sporulation inhibition (S. venezuelae): +
